Like-named read-outs stand apart in the source and are kept apart here. Blank lines part the entries; values can stand above or below the molecule they belong to.
Key:
[1] = target: T1, D3 receptor (Rattus norvegicus, UniProt P19020); test: In vitro autoradiography of coronal rat brain sections; format: binding; conditions: displacement with BP897
T1 construct: In vitro autoradiography of coronal rat brain sections after incubation with the respective radioligand; from tissue; host or cells: coronal brain cryosections (20 µm) of male Sprague Dawley rats
T1 sequence (P19020 whole entry): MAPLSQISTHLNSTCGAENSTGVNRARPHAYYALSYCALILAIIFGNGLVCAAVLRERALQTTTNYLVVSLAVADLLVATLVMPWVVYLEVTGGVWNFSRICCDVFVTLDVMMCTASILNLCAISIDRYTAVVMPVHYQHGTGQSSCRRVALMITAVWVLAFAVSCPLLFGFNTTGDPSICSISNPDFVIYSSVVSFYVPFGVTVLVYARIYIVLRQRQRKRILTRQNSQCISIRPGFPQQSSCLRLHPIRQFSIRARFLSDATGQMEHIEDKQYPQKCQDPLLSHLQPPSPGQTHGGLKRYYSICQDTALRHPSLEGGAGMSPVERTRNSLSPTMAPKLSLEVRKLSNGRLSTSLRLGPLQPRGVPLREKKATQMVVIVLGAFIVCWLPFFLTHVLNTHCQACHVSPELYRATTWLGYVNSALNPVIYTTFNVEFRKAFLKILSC
Experimental: Male Sprague Dawley rats (200–250 g) were sacrificed by decapitation under deep isoflurane anesthesia and brains were removed and frozen in cooled hexane at −70 °C. Coronal brain sections (20 µm) were cut on a cryostat microtome (HM550, Microm-Thermo Fisher Scientific, Walldorf, Germany) and thaw-mounted on covered glass slides (Histobond®, Marienfeld, Lauda Königshofen, Germany). The thaw mounted sections were stored at −20 °C up to 14 days.
The cryostat sections were pre-incubated for 15 min in incubation buffer (50 mM Tris-HCl, 40 mM NaCl, pH 7.4) at room temperature. The sections were then placed in incubation buffer containing 5 MBq of the respective tracer. For displacement studies BP897 (50 nM or 1 µM) was added. The sections were incubated at room temperature for 45 min and afterwards washed in ice cold incubation buffer for 3 × 5 min. Subsequently, they were dipped in water and after drying placed on a phosphor imaging screen (Fujitsu, Berlin, Germany) over night. The screens were analyzed with a DUERR Medical HD-CR 35 Bio (Raytest, Straubenhardt, Germany) and evaluated using the software AIDA image analyzer (Raytest). For anatomical identification of brain regions, the sections were compared with figures in the rat brain atlas.

[2] = In vivo stability in blood of living rats (radiometabolites); parameters: species or system rat
Experimental: For the determination of radioligand stability in vivo and detection of radiometabolites the respective radiotracer (15 MBq) was administered intravenous to male Sprague Dawley rats (200–250 g) under isoflurane anesthesia. Blood samples were drawn intravenous after 5, 15 and 30 min and centrifuged for 5 min at 2000 rpm in heparin-coated vials. An aliquot of 50 µL was taken from the supernatant and added to an equal volume of water (10% TFA). The protein precipitate was centrifuged off for 5 min at 25,000 rpm and an aliquot of the supernatant was fractioned with HPLC (Chromolith RP-18e, 100 mm × 4.6 mm, 4 mL/min, solvent A: water (0.1% TFA), solvent B: acetonitrile (0.1% TFA), gradient A/B: 90:10 to 0:100 in 15 min, λ = 214 nm). The fractions were then analyzed in the gamma-counter. To identify the fractions containing the intact radioligand, the retention time and fractioning of the respective tracer was previously assessed. Two independent experiments were performed.

[3] = system: dopamine D3 receptor; test: Dynamic small-animal PET recordings; format: in vivo; conditions: rat
Experimental: Small-animal PET imaging studies were conducted with male Sprague Dawleys rats (250–300 g) on a Inveon microPET scanner (Siemens Healthcare, Erlangen, Germany) under isoflurane (3%) anesthesia. After intravenous injection of [^18F]2b (10–15 MBq), dynamic emission recordings consisting of 13 frames of duration increasing from 30 s to 10 min were acquired to a total of 60 min. For displacement studies BP897 (1 mg/kg) was administered 30 min prior to radioligand injection. Dynamic emission images were corrected for attenuation and decay, and reconstructed by the iterative maximum a posteriori estimation, using software installed in the Inveon PET for dead time and random correction. The dynamic PET scan was then evaluated using the software Amide. The regions of interest were evaluated voxel based and the mean activity in %ID/g of each frame calculated.

[4] = In vitro stability in human serum; format: in vitro ADME; conditions: 37 °C, after 120 min
Experimental: For the in vitro stability, an aliquot of the respective radioligand (1–5 MBq) was added to human serum (200 μL) and incubated at 37 °C. Aliquots (20 μL) were taken after 15, 30 and 120 min and analyzed by radio-HPLC (Method 1).

[5] = Determination of log D7.4 (experimental); format: physicochemical; conditions: pH 7.4, n = 6
Experimental: Human serum was purchased (Biochrom, Biochrom, UK). Human plasma and cerebrospinal fluid was a kind gift from the laboratory of Prof. P. Lewczuk of the clinical neurochemistry in Erlangen. Rat plasma was collected from male Sprague Dawley blood samples. The blood samples were collected intravenous and centrifuged at 2000 rpm for 15 min in heparin coated vials. The supernatant was stored in aliquots at −20 °C. Radioactivity was measured with radio HPLC or in a gamma-counter (Wallac Wizard, PerkinElmer, Waltham, MA, USA). The determination of the distribution coefficient at pH 7.4 (log D7.4) has been previously published.

[6] = Free fraction in rat plasma; format: in vitro ADME; conditions: for bound to proteins in plasma: of the injected dose; for free radioligand in rat plasma: Figure 3b
Experimental: (§1) The free fraction in vitro was determined by adding the respective radioligand (100 kBq) to plasma or CSF (200 µL) and mixed vigorously. Aliquots of 20–50 µL were transferred to size exclusion chromatography columns (MicroSpin G-50; GE Healthcare GmbH, Solingen, Germany, centrifuged for two min at 2000 rpm, and the radioactivity in the filtrate and in the resin were measured in the gamma-counter. Three independent experiments were performed in triplicates.
For the ex vivo determination of the radioligands binding to proteins the respective tracer (15 MBq) was administered intravenous to male Sprague Dawley rats (200–250 g) under isoflurane anesthesia. Blood samples were drawn intravenous after 5, 15 and 30 min and centrifuged for 5 min at 2000 rpm in heparin-coated vials. An aliquot of 50 µL was taken from the supernatant and added to an equal volume of water (10% TFA). The protein precipitate was centrifuged off for 5 min at 25,000 rpm and analyzed together with a further 50 µL aliquot of the supernatant in the gamma-counter. Two independent experiments were performed.

[7] = target: D3 receptor; conditions: cited from earlier work
[8] = Binding to proteins in human plasma in vitro; format: in vitro ADME; conditions: human vs rat plasma
Experimental: as §1

[9] = parameters: method as in PMID 24339325, PMID 26707848; conditions: experimental, pH 7.4, n = 6, previously reported; cited from earlier work
[10] = parameters: method as in PMID 24339325, PMID 26707848; conditions: over 120 min, previously reported; cited from earlier work
[11] = target: T2, P-gp (Homo sapiens, UniProt P08183); test: P-gp inhibition assay (cellular uptake) in Caco-2 cells; format: cell-based; conditions: with vs without cyclosporin-A
T2 construct: endogenous in cells; host or cells: Caco-2
T2 sequence (P08183 whole entry): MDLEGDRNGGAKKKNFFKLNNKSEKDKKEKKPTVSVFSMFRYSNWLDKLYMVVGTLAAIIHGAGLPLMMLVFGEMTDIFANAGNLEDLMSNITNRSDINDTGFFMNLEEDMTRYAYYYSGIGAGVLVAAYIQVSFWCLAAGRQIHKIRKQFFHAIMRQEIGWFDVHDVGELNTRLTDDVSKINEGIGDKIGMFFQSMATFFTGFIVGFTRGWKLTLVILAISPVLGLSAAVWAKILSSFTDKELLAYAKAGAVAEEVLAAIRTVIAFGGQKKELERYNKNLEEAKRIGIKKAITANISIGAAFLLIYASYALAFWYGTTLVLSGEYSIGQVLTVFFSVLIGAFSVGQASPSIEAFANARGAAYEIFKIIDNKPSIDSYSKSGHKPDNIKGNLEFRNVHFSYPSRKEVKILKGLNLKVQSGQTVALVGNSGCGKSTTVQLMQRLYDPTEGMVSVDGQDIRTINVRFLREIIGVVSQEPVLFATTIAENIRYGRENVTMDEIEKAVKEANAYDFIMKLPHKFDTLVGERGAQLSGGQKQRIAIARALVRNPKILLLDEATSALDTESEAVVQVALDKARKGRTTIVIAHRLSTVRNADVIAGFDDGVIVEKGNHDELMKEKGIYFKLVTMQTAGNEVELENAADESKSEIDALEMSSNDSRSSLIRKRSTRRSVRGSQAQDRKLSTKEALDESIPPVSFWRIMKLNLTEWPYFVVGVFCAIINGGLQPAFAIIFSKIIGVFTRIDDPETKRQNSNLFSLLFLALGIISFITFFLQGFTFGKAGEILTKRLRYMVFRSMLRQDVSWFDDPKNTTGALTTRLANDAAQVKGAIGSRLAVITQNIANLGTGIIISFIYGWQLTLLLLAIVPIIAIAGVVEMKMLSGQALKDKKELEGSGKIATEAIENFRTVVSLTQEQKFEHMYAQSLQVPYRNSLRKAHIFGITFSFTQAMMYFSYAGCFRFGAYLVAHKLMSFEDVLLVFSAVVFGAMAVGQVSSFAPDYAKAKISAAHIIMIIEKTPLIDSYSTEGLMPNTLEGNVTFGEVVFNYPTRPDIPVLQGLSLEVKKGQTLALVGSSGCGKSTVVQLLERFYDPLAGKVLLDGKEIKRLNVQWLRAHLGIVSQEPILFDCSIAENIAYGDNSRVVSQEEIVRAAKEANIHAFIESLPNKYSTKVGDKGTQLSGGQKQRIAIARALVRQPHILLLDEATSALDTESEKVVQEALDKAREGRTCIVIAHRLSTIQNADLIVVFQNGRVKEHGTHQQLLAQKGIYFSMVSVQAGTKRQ
Experimental: (§2) EA.hy926 cells were seeded in culture medium at confluency the day prior to experiment or in case of the Caco-2 cells two days prior to experiment in 24-multiwell plates (Greiner Bio-One International GmbH, Kremsmünster, Austria). On the day of the experiment the culture medium was removed and the cells were washed once with PBS (500 µL). Culture medium supplemented with cyclosporine-A (5 µM for EA.hy926 and 10 µM for Caco-2) was added and the cells were incubated at 37 °C for 30 min. Afterwards 1 MBq of [^18F]2b was added to each well and incubated for further 30, 60 and 90 min. After incubation cells were washed with ice cold PBS (500 µL) and lysated with 0.1 M NaOH. The medium and lysates were analysed in the gamma-counter. To identify cyclosporine-A induced accumulation the experiment was also performed using culture medium lacking cyclosporine-A. As positive control the experiment was performed with ^99mTc-MIBI (100 kBq/well), a known P-gp substrate. To determine the lowermost concentration with which a maximum effect was obtained, cyclosporine-A was applied in a range of 0–50 µM and observed in a time frame of 30–120 min for both cell lines.

[12] = target: T2, P-gp; test: Bi-directional transport assay in Caco-2 cells; format: cell-based
Experimental: The procedure of initially adding equal concentrations to both compartments was adapted from the literature. Caco-2 cells were seeded near confluency in thin-cert inserts (translucent, Ø 0.4 µm, 24 well PET membrane, Greiner) and placed in multiwell plates (CELLSTAR 24 Multiwell plates, Greiner). The culture medium basolateral (multiwell) and apical (insert) was renewed every 2–3 days. Approximately 12 days after seeding the Caco-2 cells reached their highest trans-epithelial resistance, which was monitored every four days and on day of the experiment. An immunocytochemistry was also performed with an additional insert (translucent) to confirm stable formation of tight-junctions and cell monolayer. Culture medium was then removed and the cells were washed with PBS. Culture medium supplemented with cyclosporin (10 µM) was added to both compartments and the cells were incubated at 37 °C for 30 min. Afterwards 1 MBq [^18F]2b was added to each compartment. An aliquot was taken from each compartment after 0, 30, 60 and 90 min and analyzed in the gamma-counter. To identify cyclosporine-A induced accumulation the experiment was also performed using culture medium lacking cyclosporine-A. As positive control the experiment was performed with ^99mTc-MIBI (100 kBq/ compartment).

[13] = target: T2, P-gp; test: P-gp inhibition assay (cellular uptake) in EA.hy926 cells; format: cell-based; conditions: with vs without cyclosporin-A
Experimental: as §2

[14] = Caco-2, absence of cyclosporin-A, up to 90 min

intact tracer in rat plasma ([2]; 15 min post intravenous injection): 57%
intact tracer in rat plasma ([2]; nearly constant over the total sampling time): ~ 60%
uptake in the pituitary gland ([3]; 30 min p.i.): 0.45 %ID/g
maximum uptake in the cerebral matter ([3]; after 50 seconds): 0.25 %ID/g
uptake in the cerebral matter after wash-out ([3]; over the 60 min of recording): 0.17 %ID/g
decomposition in human serum [4]: ≤ 2%
logD [5]: 2.5 ± 0.04
bound to proteins in plasma [6]: 58%
free radioligand in rat plasma [6]: 42%
binding to human plasma higher than in rat plasma [8]: 20%–30%
SMILES: O=C(NCCC(O)CN1CCN(c2cccc(Cl)c2Cl)CC1)c1ccc(F)nc1 (centres unmarked) [[^18F]1, N-(4-(4-(2,3-Dichlorophenyl)piperazine-1-yl)-3-hydroxybutyl)-6-fluoronicotinamide]
binding pattern in rat brain sections [1]: pronounced non-specific binding in the corpus callosum and anterior commissure
Ki [7]: 1.9 nM

SMILES: O=C(/N=N/c1ccc([18F])cc1)NCCC(O)CN1CCN(c2cccc(Cl)c2Cl)CC1 (centres unmarked) [[^18F]2a]
binding pattern in rat brain sections [1]: homogenous non-specific binding throughout the whole rat brain sections
Log D7.4 [9]: 2.56 ± 0.01
decomposition in human serum [10]: no decomposition was observed
brain uptake smaller than for [^18F]2b, factor [3]: 1.5
uptake in the pituitary gland ([3]; 25 min p.i.): 0.6 %ID/g
bound to proteins in plasma [6]: 82%
free radioligand in rat plasma [6]: 18%
Ki [7]: 3.6 nM

SMILES: [99Tc].[C-]#[N+]CC(C)(C)OC.[C-]#[N+]CC(C)(C)OC.[C-]#[N+]CC(C)(C)OC.[C-]#[N+]CC(C)(C)OC.[C-]#[N+]CC(C)(C)OC.[C-]#[N+]CC(C)(C)OC [^99mTc-MIBI, ^99mTc-methylisobutylnitrile, reference compound]
influence of cyclosporin-A on cellular uptake [11]: accumulated
concentration in the apical compartment, % of the initial concentration [12, 14]: 120%
concentration in the basolateral compartment, % of the initial concentration [12, 14]: 70%
concentration in the basolateral compartment ([12]; Caco-2, presence of cyclosporin-A): remained nearly constant
concentration in the apical compartment, % of the initial concentration ([12]; Caco-2, presence of cyclosporin-A (^99mTc-MIBI after 60 and 90 min; [^18F]2b after 30 min)): 90%
influence of cyclosporin-A on cellular uptake [13]: accumulated

From publication PMC6272905, “In Vitro and In Vivo Characterization of Selected Fluorine-18 Labeled Radioligands for PET Imaging of the Dopamine D3 Receptor” (Molecules, 2016)
